Here are results for six compounds from US4551453A, “2-(ω-Alkylaminoalkyl)- and 2-(ω-dialkylaminoalkyl-3-(4-X-benzylidene)-phthalimidines” (Laboratori Baldacci SpA, priority 1982, dated 1985).

One data set relates to rabbit cornea. Put plainly: Test of the rabbit cornea. In kind it is in vivo. An excerpt: There were used amounts of AL 12 of 0.25-0.50-1.0% in comparison with amounts of 1% and 2% of xylocaine.
The test system of data set [1] is sciatic nerve of edible frog. To be noted: as unanimously stated in the literature; cited from earlier work.
The test system of a further data set is Wistar rats. Put plainly: Subacute toxicity, 15 days intramuscular. To be noted: 10 mg/kg AL 12 or lidocaine at equivalent molecular dose. As for the experimental part:
It was tested in two stocks of Wistar rats, in three groups each comprising 20 animals, (10 male and 10 female).
The injections were carried out by intramuscolar route in a point of the thigh for 15 days.

Data set [2] relates to cellular line Hela of human fibroplasts. As to the kind of experiment: DNA recovery test (non programmed synthesis of recovery DNA). In kind it is cell-based. To be noted: up to the concentration of 5 ml (so in the source). As to the method: (§1) The compound AL 12 was subjected to the tests of genic mutation. All the tests used for such experiments were carried out and precisely:
(c) DNA recovery test, i.e. test of the non programmed synthesis of recovery DNA on the cellular line Hela of human fibroplasts.

Data set [3] can be described thus: Pharmacodynamic tests (overall local anesthetic activity comparison). To be noted: AL 12 vs lidocaine, as it appears from the pharmacodynamic tests. As to the method: As regards the pharmacodynamic tests, they were carried out on the following compounds:
The local anesthetic power of these compounds was tested in comparison with procaine, xylocaine and tetracaine.

Data set [4] concerns sciatic nerve of edible frog. As to the kind of experiment: Test on the sciatic nerve of frog (inhibition of action potential). To be noted: for times more active than lidocaine: deduced from frog sciatic nerve comparison with procaine and literature lidocaine/procaine ratio; for times more powerful than procaine: sciatic nerve of frog, vs procaine. As for the experimental part:
There was assessed the concentration of the tested substances (AL 12, AL 12 B and AL 5) capable of inhibiting or reducing the action potential of the sciatic nerve of edible frog after removal of a lenght of perinerium.
The stimulating device was sending maximum pulses of 0.1 msec of duration.
The reductions of the action potential after application of the substances were indicated as percentages of the initial action potential.
The comparison substance was procaine at the following concentrations: 0.4-0.6 and 0.8M

A further data set is described as follows: in vivo. To be noted: mouse.
Data set [5] is described as follows: Lethality and toxicity for single dose (rat). To be noted: in vivo, ip. An excerpt: Lethality and toxicity for single dose
For a further data set, the system named is mice. To be noted: i.v. route.
The subject of another data set is vagal nerve of chicken. Put plainly: Test of inhibition of the action potential of the vagal nerve of chicken. To be noted: for pIC50: parameter (b), stimulations higher than the maximum, read-out: ED 50, inhibition of the width of the action potential; for effects vs tetracaine: same molar concentrations as tetracaine. An excerpt: For these tests two investigation parameters were selected:
(a) increase of the stimulating threshold necessary to induce the appearance of the action potential;
(b) inhibition of the potential width as induced by the supra maximum stimulation. AL 12 and AL 12 B were compared with the tetracaine.

The next data set deals with Salmonella Typhymurium. Put plainly: Ames test. It counts as cell-based. To be noted: up to the concentration of 5 ml (so in the source). As to the method:
as §1
(a) Ames test using as the substrate a protocariote organism as Salmonella Typhymurium;

Data set [6] concerns Schizosaccharomyces Pombe. Put plainly: Test of genic mutation (forwardly). In kind it is cell-based. To be noted: up to the concentration of 5 ml (so in the source). As to the method:
as §1
(b) Test of genic mutation (forwardly) of Schizosaccharomyces Pombe, permitting the evaluation of every mutagenic event capable of varying the functionality of every 5 genes involved in the synthesis of adenine;

Data set [7] in a line: 60 day intramuscular toxicological study. To be noted: rat, in vivo, im; rats, i.m., 60 days; read-out: dosage of first toxic alterations relative to single dose useful in the human being. In kind it is in vivo, rats. As to the method: (§2) In order to shown the potential toxicity of the compound AL 12 B a toxicological study was programmed which either for the duration of the administration period (60 days), and for the route of introduction in the organism (intramuscular) and for the variety of used dosages (5-10-20 mg/kg) was surely suitable to indicate the possible toxicity of the substance.
(§3) It is pointed out that the lowest dose used in the test is already about 5 to 10 times higher than the single therapeutical dose, possibly used by infiltration in the human being. Male and female rats, having respectively a body weight of about 90 and 65 g, were divided in groups of 6-9 animals of the same sex and stalled in 2 to 3 animals per cage with water and food ad libitum.
(§4) The environment conditions were maintained constant at 24° C., moisture at night-day cycle.
(§5) The drug in apirogenic sterile solution was daily injected by intramuscolar route. At the end of the treatment the animals were anesthetized for the blood removal for the hematochemical and hematological examinations. The animals were than sacrificed and the weight of the single fresh organs was carefuly recorded. The hematochemical parameters which were taken into consideration were the following: glycemia, uricemia, alkaline phosphatase (ALP) malate dehydrogenase (MDH), acetylcholinesterase (CHE), SGPT, SGOT, L-y-glutamyltransferase (Y.G.T.), ornitincarbonyltransferase (O.C.T.), triocylglycerolacylhydrolase (Lipase), isocitratedehydrogenase (ICDH), sorbitole dehydrogenase (SDH), hydroxybutyrate dehydrogenase (HCDH), lactic dehydrogenase (LDHP), […] arylamidase (LAP), sodiemia, potassiemia, chloridemia, magnesiemia, calcemia, total tryglicerides, albumins, globulins, A/G total proteins, total cholesterole, amylasemia, creatininemia. Some hematological parameters were furthermore measured: red corpuscles, platelets, white corpusles, leucocitary form, hemoglobine.
(§6) The urinary parameters taken into consideration were, besides the 24 hour volume, azotemia, creatininuria, amylasuria, uricuria, calciuria, chlorides, sodium and potassium.
(§7) For the statistical evaluations of the weight of the fresh organs the analysis of the covariations was effected in order to eliminate the possible influences of the body weight onto the organ weight.
(§8) The hematological and hematochemical parameters were statistically balanced by means of the variancy analysis by taking into consideration all the gropus and the Student "t" amongst the single treated groups and the control group.
(§9) The homogeneity of the leucocitary form was investigated by the .chi.^2 test.

In a further data set the test system is Male and female rats. As to the kind of experiment: 60 day intramuscular toxicological study. It counts as in vivo. To be noted: 60 days. As for the experimental part:
as §2, §3, §4, §5, §6, §7, §8, §9

pIC50: −log10 of the molar value. Counter-ions that a name gives are not always drawn.

As for `CCN(CC)CC(=O)Nc1c(C)cccc1C` [xylocaine, reference compound], in the data set with rabbit cornea (2% xylocaine), the “duration of the complete anesthesy” value is 60 min.
As to `CCN(CC)CC(=O)Nc1c(C)cccc1C` [lidocaine], in data set [1], the “local anesthetic activity, times higher than procaine” value is reported as “about 2.2 times”. Also, the “food consumption and diuresis” value with Wistar rats (all along the treatment period) is “normal”. Further, in the data set with Wistar rats (intramuscular, 15 days), the “all the other functions” value is listed as “remained unchanged”; the autoptic examination result is “Nothing out of the rule was observed”; the “loss of functionality of the injected leg, duration” value is on record as “about one”; the “weight of the organs vs control animals” value is listed as “did not differ from that of the control animals”.
As to `CCN(CC)CCN1C(=O)c2ccccc2C1=Cc1ccc(OC)cc1` [AL 12, 3-(4-methoxybenzylidene)-2-(β-diethylaminoetyl)phthalimidine hydrochloride], the “induction of mutations, DNA recovery test” value in [2] is on record as “unable to induce mutations”. The “local anesthetic activity: lidocaine is about n times less active than AL 12” value in data set [3] is recorded as “about 4 times”. Also, in data set [4], the “times more active than lidocaine” value was 5-6 times and the “times more powerful than procaine” value is on record as “about 11.5 times”. The median lethal dose (LD50) in the data set “in vivo” (im) stood at 32.5 mg/kg. The compound also registered a median lethal dose (LD50) in the data set “in vivo” (iv) of 13.5 mg/kg. Further, in data set [5], the LD50 was 52.5 mg/kg. The “acute toxicity, times higher in comparison with lidocaine” value in the data set on mice was “about 2.4 (2.37) times”. For the same compound, in the data set on rabbit cornea (0.25% AL 12), the “duration of complete anesthesy” value worked out at 30 min. For the same compound, the “duration of complete anesthesy vs xylocaine at a 4 times higher concentration” value in the data set on rabbit cornea (0.25% AL 12 vs 4 times higher xylocaine) is recorded as “slightly lower”. Further, in the data set on rabbit cornea (0.50% AL 12), the “duration of the complete anesthesy” value is reported as “more than 90 minutes”. Moreover, the “anesthetic power vs xylocaine at a 4 times higher dose” value in the data set on rabbit cornea (0.50% AL 12 vs 2% xylocaine) is recorded as “higher”. Besides, in the data set on vagal nerve of chicken, the pIC50 is 8.10 and the effects vs tetracaine entry is listed as “almost perfectly superimposable to those of tetracaine”. The “induction of mutations, Ames test” value in the data set with Salmonella Typhymurium is given as “unable to induce mutations”. In data set [6], the “induction of mutations, genic mutation (forwardly)” value is “unable to induce mutations”.
In the case of `CCN(CC)CCN1C(=O)c2ccccc2C1=Cc1ccc(OC(C)=O)cc1` [AL 12B, 3-(4-acetoxybenzylidne)-2-(β diethylaminoethyl)-phthalimidine hydrochloride], the selectivity ratio at 1440 h in data set [7] was determined as 10. Besides, in the data set with Male and female rats (5 mg/kg i.m.), the “all the investigated parameters” value is given as “none appeared to be modified”. In the data set with Male and female rats (female, 10 mg/kg i.m.), the HBDG entry was “increase”; the LDH-P entry was “increase”; the globulins result is on record as “increase”; the “urinary parameters, females” value is reported as “no alteration might be appreciated”. The “alterations in female animals” value in the data set with Male and female rats (female, 20 mg/kg i.m.) is on record as “no alteriation might be appreciated”. For the same compound, the “body weight growth vs control” value with Male and female rats (male and female rats, 5-10-20 mg/kg i.m.) was “comparable with that of the control animals”. Besides, in the data set with Male and female rats (male and female, 10 mg/kg i.m.), the hematological parameters entry was “None of the hematological parameters was modified”. For the same compound, the “body weight growth, males at higher dosages (not statistically significant)” value with Male and female rats (male rats, 10-20 mg/kg i.m.) is on record as “tendentially reduced”. Also, in the data set on Male and female rats (male, 10 mg/kg i.m.), the albumins result is reported as “reduction”; the amylasuria entry is “reduced”; the glycemia entry was “reduction”; the “spleen weight, males” value is “slight increase”. The urinary chloride result in the data set with Male and female rats (male, 10 mg/kg i.m.) is on record as “reduced”. Besides, in the data set with Male and female rats (male, 20 mg/kg i.m.), the “weight of the spleen” value is on record as “increased” and the “weight of the suprarenal glands” value is listed as “increased”. Also, the “ALP (alkaline phosphatase)” value in the data set on Male and female rats (male, found also in female, 10 mg/kg i.m.) is on record as “slight increase”. Also, in the data set with Male and female rats (rats, 5-10-20 mg/kg i.m.), the “dose-dependence of the observed modifications” value is given as “none of the observed modifications, was shown to be dose-dependent” and the overall toxicity entry is recorded as “not particularly toxic”. Moreover, in data set [4], the “times more active than lidocaine” value was “about 4 times” and the “times more powerful than procaine” value is listed as “at least 8.5 times”. In addition, in data set [4] (sciatic nerve of edible frog, read-out: ED50 (reduction of action potential)), the pIC50 was 1.10. Besides, the effects vs tetracaine result in the data set on vagal nerve of chicken is “almost perfectly superimposable to those of tetracaine”.
As to `CCCCNc1ccc(C(=O)OCCN(C)C)cc1` [tetracaine, reference compound], in the data set on vagal nerve of chicken, the pIC50 is 8.10.
For the compound `CN(C)CCCN1C(=O)c2ccccc2C1=Cc1ccccc1` [AL 5, 3-benzylidene-2-(γ-dimethylaminopropyl)-phthalimidine hydrochloride], in data set [4], the “times more powerful than procaine” value was “about 5 times”.
